Measured values as given in patent US20200054643A1, “FUSED HETEROCYCLIC COMPOUNDS AS SELECTIVE BMP INHIBITORS” (Vanderbilt University, priority 2017, published 2020).

Tests used:
ALK5/TGFBR1 = target: T1, ALK5/TGFBR1 (Homo sapiens, UniProt P36897); assay: BMP Type 1 receptor assay, ALK5/TGFBR1; assay type: biochemical
T1 sequence (P36897 34-503): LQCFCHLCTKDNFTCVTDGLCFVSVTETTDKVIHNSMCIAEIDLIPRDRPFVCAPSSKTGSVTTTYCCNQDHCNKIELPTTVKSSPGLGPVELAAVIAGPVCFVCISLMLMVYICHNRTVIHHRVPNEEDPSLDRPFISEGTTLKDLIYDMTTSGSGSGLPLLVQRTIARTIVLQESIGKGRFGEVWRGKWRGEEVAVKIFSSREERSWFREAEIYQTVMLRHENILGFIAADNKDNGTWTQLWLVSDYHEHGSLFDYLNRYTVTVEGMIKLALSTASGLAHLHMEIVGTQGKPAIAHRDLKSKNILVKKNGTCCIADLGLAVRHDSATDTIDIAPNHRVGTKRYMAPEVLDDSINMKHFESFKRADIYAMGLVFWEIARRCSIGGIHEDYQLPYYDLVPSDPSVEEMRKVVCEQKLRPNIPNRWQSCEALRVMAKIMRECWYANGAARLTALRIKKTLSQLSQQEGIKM

ALK2/ACVR1 = target: T2, ALK2/ACVR1 (Homo sapiens, UniProt Q04771); assay: BMP Type 1 receptor assay, ALK2/ACVR1; assay type: biochemical
T2 sequence (Q04771 21-509): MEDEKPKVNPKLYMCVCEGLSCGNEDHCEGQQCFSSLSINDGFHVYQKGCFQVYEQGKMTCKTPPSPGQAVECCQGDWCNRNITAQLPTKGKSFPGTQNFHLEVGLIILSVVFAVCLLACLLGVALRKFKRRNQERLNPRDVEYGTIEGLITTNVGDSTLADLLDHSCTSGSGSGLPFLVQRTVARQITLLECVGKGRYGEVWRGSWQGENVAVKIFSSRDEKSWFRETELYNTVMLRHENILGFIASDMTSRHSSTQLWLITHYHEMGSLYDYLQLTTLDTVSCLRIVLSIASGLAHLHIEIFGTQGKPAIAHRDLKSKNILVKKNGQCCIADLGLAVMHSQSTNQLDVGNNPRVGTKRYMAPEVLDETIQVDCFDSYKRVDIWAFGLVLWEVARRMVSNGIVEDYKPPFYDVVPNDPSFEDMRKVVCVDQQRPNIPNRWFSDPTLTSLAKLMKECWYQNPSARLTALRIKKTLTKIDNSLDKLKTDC

ALK3/BMPRR1A = ALK3/BMPRR1A (Homo sapiens, UniProt P36894); assay: BMP Type 1 receptor assay, ALK3/BMPRR1A; assay type: biochemical
ALK3/BMPRR1A, sequence (P36894 24-532): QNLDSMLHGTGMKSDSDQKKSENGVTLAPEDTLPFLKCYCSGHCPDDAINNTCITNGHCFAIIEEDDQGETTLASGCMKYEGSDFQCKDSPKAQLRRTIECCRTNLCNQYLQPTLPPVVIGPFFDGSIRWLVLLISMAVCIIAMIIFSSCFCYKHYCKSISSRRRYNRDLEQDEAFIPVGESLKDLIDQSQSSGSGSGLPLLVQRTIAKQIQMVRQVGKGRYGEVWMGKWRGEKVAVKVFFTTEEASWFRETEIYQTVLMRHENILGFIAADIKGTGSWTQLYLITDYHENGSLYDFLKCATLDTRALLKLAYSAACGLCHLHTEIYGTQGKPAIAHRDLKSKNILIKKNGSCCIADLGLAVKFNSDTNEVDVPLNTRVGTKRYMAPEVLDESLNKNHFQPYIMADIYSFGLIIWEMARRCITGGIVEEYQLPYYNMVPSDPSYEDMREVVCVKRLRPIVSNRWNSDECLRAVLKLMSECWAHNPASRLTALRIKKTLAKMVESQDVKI

ALK1/ACVR1 = ALK1/ACVR1 (Homo sapiens, UniProt P37023); assay: BMP Type 1 receptor assay, ALK1/ACVR1; assay type: biochemical
ALK1/ACVR1, sequence (P37023 22-503): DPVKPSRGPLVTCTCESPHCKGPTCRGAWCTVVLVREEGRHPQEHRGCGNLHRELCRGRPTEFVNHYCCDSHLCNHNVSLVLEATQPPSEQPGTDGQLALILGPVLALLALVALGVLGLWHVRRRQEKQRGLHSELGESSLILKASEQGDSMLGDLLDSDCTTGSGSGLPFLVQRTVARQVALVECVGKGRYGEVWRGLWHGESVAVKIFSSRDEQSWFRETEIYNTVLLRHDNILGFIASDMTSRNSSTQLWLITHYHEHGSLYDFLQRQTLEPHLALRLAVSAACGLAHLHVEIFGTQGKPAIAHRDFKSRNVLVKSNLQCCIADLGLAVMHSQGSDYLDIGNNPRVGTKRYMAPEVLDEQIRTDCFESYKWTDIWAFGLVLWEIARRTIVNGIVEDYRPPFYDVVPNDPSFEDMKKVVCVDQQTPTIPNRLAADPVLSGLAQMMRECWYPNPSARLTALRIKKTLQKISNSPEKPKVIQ

ALK6/BMPR1B = ALK6/BMPR1B (Homo sapiens, UniProt O00238); assay: BMP Type 1 receptor assay, ALK6/BMPR1B; assay type: biochemical
ALK6/BMPR1B, sequence (O00238 14-502): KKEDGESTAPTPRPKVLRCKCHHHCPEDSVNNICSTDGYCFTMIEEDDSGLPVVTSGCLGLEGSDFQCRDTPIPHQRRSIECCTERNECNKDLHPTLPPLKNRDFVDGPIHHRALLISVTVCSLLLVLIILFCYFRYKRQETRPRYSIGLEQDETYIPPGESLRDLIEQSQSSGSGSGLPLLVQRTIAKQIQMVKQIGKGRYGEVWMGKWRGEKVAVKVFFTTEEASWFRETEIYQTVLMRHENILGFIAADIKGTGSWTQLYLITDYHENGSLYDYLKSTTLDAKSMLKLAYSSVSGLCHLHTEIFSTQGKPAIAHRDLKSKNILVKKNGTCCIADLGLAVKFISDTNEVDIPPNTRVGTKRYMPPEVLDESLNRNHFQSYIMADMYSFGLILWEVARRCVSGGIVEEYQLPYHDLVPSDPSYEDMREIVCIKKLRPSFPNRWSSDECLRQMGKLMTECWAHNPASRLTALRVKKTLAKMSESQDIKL

BMP4 = BMP4 cell assay (BMP reporter); assay type: cell-based; conditions: Table 2

| SMILES | IC50 (ALK5/TGFBR1) [nM] | IC50 (ALK2/ACVR1) [nM] | IC50 (ALK3/BMPRR1A) [nM] | also measured |
| --- | --- | --- | --- | --- |
| CC(C)Oc1ccc(-c2ccn3c(-c4ccnc(F)c4)cnc3c2)cc1 [Entry 26, 3-(2-fluoropyridin-4-yl)-7-(4-isopropoxyphenyl)imidazo[1,2-a]pyridine] | > 100000 | 265 |  |  |
| CC(C)Oc1ccc(-c2ccn3c(-c4ccnc(Cl)c4)cnc3c2)cc1 [Entry 25, 3-(2-chloropyridin-4-yl)-7-(4-isopropoxyphenyl)imidazo[1,2-a]pyridine] | 13600 | 155 | 118 | IC50 (ALK1/ACVR1): 87 nM; IC50 (ALK6/BMPR1B): 340 nM |
| Cc1cc(-c2cnc3cc(-c4ccc(OC(C)C)cc4)ccn23)ccn1 [Entry 45, 7-(4-isopropoxyphenyl)-3-(2-methylpyridin-4-yl)imidazo[1,2-a]pyridine] | 3490 | 149 |  |  |
| CN1CCN(c2ccc(-c3ccn4c(-c5csc6nccnc56)cnc4c3)cc2)CC1 [Entry 60, 7-(7-(4-(4-methylpiperazin-1-yl)phenyl)imidazo[1,2-a]pyridin-3-yl)thieno [2,3-b]pyrazine] |  |  | 40.1 |  |
| c1ccc2c(-c3cnc4cc(-c5ccc6c(c5)OCCO6)ccn34)ccnc2c1 [drawing 207] |  |  |  | IC50 (BMP4): 2890 nM |
| CN1CCN(c2ccc(-c3ccn4c(-c5ccnc6ccsc56)cnc4c3)cc2)CC1 [Entry 62, 7-(7-(4-(4-methylpiperazin-1-yl)phenyl)imidazo[1,2-a]pyridin-3-yl) thieno[3,2-b]pyridine] |  |  | 50.8 |  |
| CC(C)Oc1ccc(-c2cc3ncc(-c4ccnc5ccccc45)n3cn2)cc1 |  |  |  | IC50 (BMP4): 8100 nM |
| c1ccc2c(-c3cnc4cc(-c5ccc(OCCN6CCOCC6)cc5)ccn34)ccnc2c1 [Example 1, 4-(2-(4-(3-(quinolin-4-yl)imidazo[1,2-a]pyridin-7-yl)phenoxy)ethyl)morpholine] |  |  |  | IC50 (BMP4): 62 nM |

Continued, in another order:

| IC50 (ALK5/TGFBR1) [nM] | IC50 (ALK2/ACVR1) [nM] | IC50 (ALK3/BMPRR1A) [nM] | SMILES | also measured |
| --- | --- | --- | --- | --- |
| > 100000 | 1970 | 92 | CC(C)Oc1ccc(-c2ccn3c(-c4cn[nH]c4)cnc3c2)cc1 [Entry 42, 7-(4-isopropoxyphenyl)-3-(1H-pyrazol-4-yl)imidazo[1,2-a]pyridine] | IC50 (ALK1/ACVR1): 494 nM; IC50 (ALK6/BMPR1B): 895 nM |
|  | 26.5 |  | Cc1cc(-c2cnc3cc(-c4ccc(N5CCN(C)CC5)cc4)ccn23)c2ccccc2n1 [Entry 51, 2-methyl-4-(7-(4-(4-methylpiperazin-1-yl)phenyl)imidazo[1,2-a]pyridin-3-yl)quinoline] |  |
|  | 270 |  | c1ccc2c(-c3cnc4cc(-c5ccc6c(c5)OCCO6)ccn34)ccnc2c1 [Entry 5, 4-(7-(2,3-dihydrobenzo[b][1,4]dioxin-6-yl)imidazo[1,2-a]pyridin-3-yl)quinoline] |  |
|  | 20 |  | Cc1cc(-c2cnc3cc(-c4ccc(N5CCN(C)CC5)cc4)ccn23)ccn1 [Entry 67, 7-(4-(4-methylpiperazin-1-yl)phenyl)-3-(2-methylpyridin-4-yl)imidazo[1,2-a]pyridine] |  |
|  | 46 |  | CN1CCN(c2ccc(-c3ccn4c(-c5ccncc5)cnc4c3)cc2)CC1 [Entry 66, 7-(4-(4-methylpiperazin-1-yl)phenyl)-3-(pyridin4-yl)imidazo[1,2-a]pyridine] |  |
| > 100000 | 645 |  | c1ccc(-c2cnc3cc(-c4ccc(OCCN5CCOCC5)cc4)ccn23)cc1 [Entry 30, 4-(2-(4-(3-phenylimidazo[1,2-a]pyridin-7-yl)phenoxy)ethyl)morpholine] |  |
| 3960 |  | 7.9 | CN1CCN(c2ccc(-c3ccn4c(-c5ccnc6ccccc56)cnc4c3)cc2)CC1 [Entry 21, 4-(7-(4-(4-methylpiperazin-1-yl)phenyl)imidazo[1,2-a]pyridin-3-yl)quinoline] | IC50 (ALK6/BMPR1B): 11 nM |
